Experimental data published in US12275685B2, “Oligo-benzamide analogs and their use in cancer treatment” (Board of Regents, The University of Texas System, priority 2018, dated 2025).
Read-outs that look alike come from different tables or passages of the source.

Legend:
ERα [1] = target: ERα (Homo sapiens, UniProt P03372); assay type: cell-based; conditions: WT-ERα
ZR-75 MT-ERα cells = assay: Colony formation, ZR-75 MT-ERα; assay type: cell-based
Description: (§1) The 200 nM dose for these drugs reflects the level at which each of these drugs has a significant effect on spheroid formation in the MCF-7 WT-ERa cells. Taken together, these studies indicate that TX-542 has significant activity against both WT-ERα and MT-ERα driven ERα+ BC cell lines and is a worthwhile candidate for further study.

MCF-7 MT-ERα Y537S cells = assay type: cell-based; conditions: 200 nM
MT-ERα [2] = assay: MT-ERα protein levels; assay type: cell-based
[3] = test system: MCF-7 MT-ERα Y537S and D538G cells; assay type: cell-based; conditions: comparators at 200 nM in MCF-7 MT-ERα Y537S cells
ERα [4] = assay type: cell-based; conditions: MT-ERα, 200 nM
[5] = test system: WT-ERα ZR-75 or MT-ERα MCF-7 xenografts; assay: TX-542 in ERα BC xenografts; assay type: in vivo, nude mice
Description: FIGS. 59A-B: MCF-7 MT-ERa D538G and Y537S xenograft tumors were injected into the mammary fat pad of nude mice. Once the tumors were established (100 mm^3), treatment with either vehicle or TX-542 (10 mg/kg/ip) was commenced and their effect on tumor growth and mice body weights were graphed (n=9 per group).
(§2) To establish the pharmacokinetic (PK) profile of TX-542, the inventors worked with the UTSW preclinical pharmacology core to characterize pharmacologic properties of TX-542 (FIG. 58). These studies indicated an 8-h half-life of TX-542 in the plasma, with drug detectable in both the liver and kidney after intraperitoneal (i.p.) administration.

[6] = test system: estrogen receptor-positive breast cancer; assay: Growth inhibition of ER-positive breast cancer; assay type: cell-based
[7] = test system: MT-ERα expressing BC cells; assay: Apoptosis by annexin staining; assay type: cell-based; conditions: within 72 h after treatment, 200 nM
Description: FIG. 55: Effect of 200 nM TX-542 on apoptosis of MT-ERα expressing BC cells.
as §1

[8] = Pharmacokinetic profile of TX-542; assay type: in vivo
Description: FIG. 58: PK properties of TX-542 indicate a half-life in plasma of 8 h and accumulation over time in tumor.
as §2

MT-ERα [9] = assay: ChIP of MT-ERα DNA binding, TX-542; assay type: cell-based
[10] = test system: ER-null (SUM-159 or MDA-MB-231 cells); assay: Antiproliferative assay in ER-null cells; assay type: cell-based
Description: (§3) FIG. 52: Comparative efficacy of TX-542 and SERDs in BC cells expressing WT and/or MT ERα: Using CRISPR-Cas9, both copies of WT ERα genes were knocked out in ZR-75 and T47-D, while only one copy of WT Era was knocked out in MCF-7 cells. Following knockout of WT ERα clones with stable expression of either Y537S ERα MT or the D538G ERα MT were selected. […] ERα-negative TNBC cells (SUM-159 and MDA-MB-231) were used as controls. Dose response curves were generated for ERX-11, TX-542 and SERDs using cell titer glo assays. IC50 values for each cell line and drug were calculated and tabulated. Tam=tamoxifen, ICI=fulvestrant, GDC-0810=Genentech SERD, AZD-9496 Astra Zeneca SERD, RAD-1901=Radius SERD, Palbo=Palbociclib. IC50 values<50 nM are shown in red.
(§4) TX-542. TX-542 was potent (IC50˜20-50 nM) as an antiproliferative agent against expressing MT-ERα, both in genetically modified MCF-7 cells with one WT-ERα allele and one MT-ERα allele introduced by CRISPR and genetically modified ZR-75 or T47-D cells in which both copies of WT-ERα alleles were replaced using CRISPR with MT-ERα. TX-542 had no activity against ER-null (SUM-159 or MDA-MB-231 cells) or non-tumorigenic breast epithelial cells, such as human mammary epithelial cells (HMEC). […] In addition, these agents are not able to consistently target all the MT-ERα forms in distinct genetic contexts, as shown in FIG. 52 and as reported by others.

[11] = test system: human mammary epithelial cells (HMEC); assay: Antiproliferative assay of TX-542 in HMEC; assay type: cell-based
Description: as §4

[12] = test system: BC cells expressing MT-ERα; assay: Boyden chamber invasion assay; assay type: cell-based
Description: FIG. 62: Effect of TX-542 on invasiveness of BC cells expressing Erα mutants in a Boyden chamber assay.
(§5) Since MT-ERα is primarily expressed in metastases, the inventors used metastatic models to evaluate effect of TX-542 on the development and progression of metastasis.

[13] = test system: BC cells expressing MT-ERα (MCF-7, ZR-75, T47-D); assay: Cell titer glo antiproliferative assay in MT-ERα BC cells; assay type: cell-based
Description: as §3, §4

MT-ERα [14] = assay: ERE luciferase reporter gene assay, TX-542; assay type: cell-based; conditions: minimal promoter with three copies of ERE
[15] = test system: MT-ERα expressing BC metastasis; assay: Metastatic models (intracardiac, intratibial injection); assay type: in vivo, mice
Description: FIG. 63: Following intracardiac injection of luciferase-tagged ZR-75 MT-ERα Y537S tumors, mice are imaged five at a time under 2% isoflurane gas anesthesia. Each mouse is injected with D-Luciferin and imaged 10-15 minutes after the injection. BLI signal is quantified in regions of interest (ROIs) drawn around tumors, specific areas (for example cranial, thoracic or abdominal), whole body or tissues ex vivo and the signal is expressed as photons per second, representing the flux radiating omni-directionally from the user-defined region. Images are analyzed using Living Image 4.3.1 (PerkinElmer, Waltham, MA) software. Once the tumors were established (40,000 luminescene counts at 30 seconds exposure), mice were treated either with vehicle or TX-542. […] Relative luminescence counts are mapped (middle panel). Mice were sacrificed once symptomatic and the survival curves for vehicle treated (black) or TX-542 treated (red) are graphed (right panel) (n=6 in each group).
Once tumors were established, daily treatment of mice with either vehicle or TX-542 (10 mg/kg/ip) were performed. Results are shown and graphed (n=6).
as §5

Protein binding = assay type: in vitro ADME
[16] = test system: BC cells expressing WT-ERα and MT-ERα; assay: Clonogenic assay; assay type: cell-based; conditions: 100 nM
Description: FIG. 53: Effect of 100 nM TX-542 on clonogenic survival of WT-ERα and MT-ERα BC cell lines.
as §1

Sequence of ERα (Homo sapiens, UniProt P03372) (P03372 whole entry): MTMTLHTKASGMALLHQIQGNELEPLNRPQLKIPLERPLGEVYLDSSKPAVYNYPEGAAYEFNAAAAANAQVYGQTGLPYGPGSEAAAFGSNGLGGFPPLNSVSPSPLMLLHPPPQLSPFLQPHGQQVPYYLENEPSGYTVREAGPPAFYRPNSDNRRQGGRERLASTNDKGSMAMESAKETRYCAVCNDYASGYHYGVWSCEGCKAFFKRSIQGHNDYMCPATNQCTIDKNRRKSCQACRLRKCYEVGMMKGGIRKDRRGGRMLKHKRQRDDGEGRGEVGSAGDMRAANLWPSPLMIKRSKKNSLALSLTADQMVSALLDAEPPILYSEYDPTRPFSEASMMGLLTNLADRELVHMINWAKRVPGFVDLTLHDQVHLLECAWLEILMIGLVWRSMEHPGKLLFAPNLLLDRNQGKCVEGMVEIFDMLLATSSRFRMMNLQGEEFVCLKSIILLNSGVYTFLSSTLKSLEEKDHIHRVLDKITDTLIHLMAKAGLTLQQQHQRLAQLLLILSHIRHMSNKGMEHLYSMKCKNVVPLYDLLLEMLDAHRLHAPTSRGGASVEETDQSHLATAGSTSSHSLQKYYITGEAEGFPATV

## C[C@]12CC[C@@H]3c4ccc(O)cc4C[C@@H](CCCCCCCCC[S+]([O-])CCCC(F)(F)C(F)(F)F)[C@H]3[C@@H]1CC[C@@H]2O (some centres unmarked) [fulvestrant]
ERα [1]
  time to WT-ERα degradation: ≤ 4 h
ZR-75 MT-ERα cells
  colony formation in ZR-75 MT-ERα cells: activity was not seen
MCF-7 MT-ERα Y537S cells
  soft agar colony formation: significantly affected colony formation
MT-ERα [2]
  ability to decrease MT-ERα protein levels: neither fulvestrant nor GDC-0810 were able to decrease MT-ERα protein levels
[3]
  spheroid size or architecture: neither ERX-11, palbociclib, GDC-0810 nor AZD-9496, tamoxifen nor fulvestrant (at 200 nM) significantly disrupted spheroid size or architecture

## NCCC(=O)Nc1ccc(C(=O)Nc2ccc(C(=O)NCCc3ccc4ccccc4c3)cc2OCC2CCCCC2)cc1OCCO [TX-542]
ERα [4]
  onset of effect on MT-ERα levels: not noticeable until 24 h
[5]; 10 mg/kg/ip
  growth of established xenografts: potent activity
  mouse body weights: no effect on mouse body weights
[5]; treated animals
  renal and liver parameters, histopathology, clinical chemistry: lack of change in renal and liver parameters
[6]
  growth inhibition of ER-positive breast cancer: strong growth inhibition
  specificity for ER-positive cells: high specificity
[7]
  apoptotic cell death: induced apoptotic cell death
[8]; 24 h after the last dose, daily i.p. 10 mg/kg
  level in tumor tissue: > 0.1 mg/g
[8]; MCF-Y537S xenografts, daily i.p. 10 mg/kg
  time to steady state levels in tumor: 5 days
[8]; mouse, plasma, intraperitoneal
  half-life: 8 h
[8]; mouse, tumor, intraperitoneal, 10 mg/kg, 24 h after the last dose, read-out: corresponding tumor concentration
  concentration at 24 h: > 200 nM
MT-ERα [9]
  MT-ERα DNA binding: blocks both basal and estradiol-induced MT-ERα DNA binding
MCF-7 MT-ERα Y537S cells
  soft agar colony formation: potently reduced soft agar colony formation
[10]
  activity against ER-null cells: no activity
[11]
  activity against non-tumorigenic breast epithelial cells: no activity
[12]
  invasion of BC cells expressing MT-ERα: potently affects the invasion
[13]; MCF-7, ZR-75 or T47-D cells expressing MT-ERα, read-out: IC50, antiproliferative
  IC50: 20 to 50 nM
[13]; MT-ERα alone (ZR-75 and T47-D) or with WT-ERa (MCF-7), read-out: IC50 in multiple MT-ERα models
  IC50: < 50 nM
MT-ERα [14]
  ERE-driven transcription: decrease transcription
[15]; 10 mg/kg/ip
  growth of lung and bone metastasis: decrease the growth of lung metastasis
[15]; within 4 weeks, treatment started immediately after intracardiac injection
  animals that formed mets: 1/6
Protein binding
  bound to proteins: 75%
[16]
  clonogenic survival: significantly reduced the survival
[3]
  spheroid size or architecture: disrupted spheroid architecture
